Laboratory results: patent US9358249B2, “Use of Pateamine A for the treatment of age-related muscle wasting” (The Regents of the University of California, priority 2008, dated 2016)

How the values were obtained:
[1] = biological target: T1, eukaryotic initiation factor 4A (eIF4A), yeast (TAP tagged Tif1) (Saccharomyces cerevisiae, UniProt P10081); experiment: Proteolysis protection of yeast cell lysate proteins by resveratrol (silver staining, mass spectrometry, western blotting); assay type: binding
T1 construct: We performed proteolysis on yeast cell lysates that had been incubated with resveratrol or ethanol; TAP; endogenous in cells; host or cells: yeast cells (lysate); strain expressing TAP-tagged Tif1 for the western blot
T1 sequence (P10081 1-395): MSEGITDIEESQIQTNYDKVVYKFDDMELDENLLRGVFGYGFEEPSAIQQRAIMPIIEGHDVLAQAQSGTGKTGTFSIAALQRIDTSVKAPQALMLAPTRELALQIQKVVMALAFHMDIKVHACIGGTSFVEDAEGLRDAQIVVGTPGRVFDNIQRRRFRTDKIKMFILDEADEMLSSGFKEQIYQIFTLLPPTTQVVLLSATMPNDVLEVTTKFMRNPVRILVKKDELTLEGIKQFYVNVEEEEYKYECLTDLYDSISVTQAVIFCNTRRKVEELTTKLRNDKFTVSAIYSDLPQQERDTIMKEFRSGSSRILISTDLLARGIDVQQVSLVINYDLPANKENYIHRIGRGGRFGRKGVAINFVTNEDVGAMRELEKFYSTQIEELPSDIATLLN
Experimental: (§1) FIGS. 1A-1C illustrate the identification of eIF4A as the molecular target of resveratrol. FIG. 1A: Chemical structure of resveratrol. FIG. 1B: Lysate from untreated yeast cells or Hela cell were incubated with resveratrol or vehicle for 1 hr at room temperature, followed by proteolysis, SDS-PAGE, and silver staining. Mass spectrometry identifies the protected protein is eIF4A. FIG. 1C: Western blotting confirms the protection of yeast (TAP-tagged Tifi) eIF4A by resveratrol.
We performed proteolysis on yeast cell lysates that had been incubated with resveratrol or ethanol (vehicle control).

human eIF4A = biological target: T2, human eIF4A (Homo sapiens, UniProt P60842); experiment: Proteolysis protection in human HeLa cell lysate by resveratrol (western blotting); assay type: binding; settings: 100 μM resveratrol
T2 construct: endogenous in cells; host or cells: HeLa cell lysate
Experimental: as §1

[2] = test system: eukaryotic translation (rabbit reticulocyte lysate system); experiment: In vitro translation assay, rabbit reticulocyte lysate system, firefly luciferase mRNA; assay type: biochemical; settings: 100 μM resveratrol
Experimental: The rabbit reticulocyte lysate system was treated with different concentration of resveratrol (0, 1, 10, 50, 100, 500 μM), and the translation of firefly luciferase mRNA was measured with Promega luciferase assay.
The in vitor translation assay is performed with the rabbit reticulocyte lysate system. We added different concentrations of resveratrol into the in vitor translation reaction, and used the translation of firefly luciferase mRNA as a readout. […] Translation is reduced by >70% at 100 μM resveratrol, the concentration at which we previously detected eIF4A protection in HeLa cell lysate.

[3] = test system: cap-dependent (eIF4A-requiring) translation of renilla luciferase; experiment: Bicistronic dual-luciferase reporter pcDNA/Ren/HCV/FF in HEK 293 cells, Renilla luciferase; assay type: cell-based; settings: 0-100 μM, 33 hour after transfection
Experimental: (§2) FIG. 3A: Schematic diagram of the bicistronic dual-luciferase mRNA Ren-HCV-FF. FIG. 3B: Resveratrol inhibits cap-dependent translation initiation of Renilla luciferase but not eIF4A-independent translation of firefly luciferase. HEK 293 cells transfected with plasmid pcDNA/REN/HCV/FF are treated with different concentration of resveratrol (0, 0.1, 1, 10, 50, 100 μM). Translation of reporter genes was measured 33 hour after transfection using the Dual-Glo luciferase assay (Promega) with an Analyst HT plate reader (Molecular Devices).
(§3) One such illustrative assay is shown in Example 1.

[4] = test system: HCV IRES mediated (eIF4A-independent) translation of firefly luciferase; experiment: Bicistronic dual-luciferase reporter pcDNA/Ren/HCV/FF in HEK 293 cells, firefly luciferase; assay type: cell-based; settings: 0-100 μM, 33 hour after transfection
Experimental: as §2, §3

T2 sequence (P60842 whole entry): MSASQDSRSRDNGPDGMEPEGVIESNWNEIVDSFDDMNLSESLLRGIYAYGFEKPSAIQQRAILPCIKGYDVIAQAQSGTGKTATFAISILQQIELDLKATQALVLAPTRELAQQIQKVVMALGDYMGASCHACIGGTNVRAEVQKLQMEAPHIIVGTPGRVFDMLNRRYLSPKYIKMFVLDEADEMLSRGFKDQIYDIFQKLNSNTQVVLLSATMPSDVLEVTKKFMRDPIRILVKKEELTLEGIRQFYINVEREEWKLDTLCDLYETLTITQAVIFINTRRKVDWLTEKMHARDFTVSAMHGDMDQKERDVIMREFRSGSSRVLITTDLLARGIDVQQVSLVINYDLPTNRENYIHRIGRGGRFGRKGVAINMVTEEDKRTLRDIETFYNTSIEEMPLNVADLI

Structure (SMILES): Oc1ccc(C=Cc2cc(O)cc(O)c2)cc1 [resveratrol]
- eIF4A in protected bands (15 and 25 kDa) after proteolysis, mass spectrometry ([1]; yeast cell lysate incubated with resveratrol vs ethanol vehicle): enriched in the resveratrol-treated sample
- protection of yeast (TAP tagged Tif1) eIF4A, western blotting ([1]; yeast lysate, proteolysis): further confirmed by western blotting
- protected band after proteolysis, confirmed as human eIF4A by western blotting (human eIF4A): protected band of similar size was detected
- Translation reduced (firefly luciferase signal) [2]: > 70%
- expression of renilla luciferase (cap-dependent) [3]: inhibited in a dose-dependent manner
- expression of firefly luciferase (HCV IRES) [4]: unaffected
